The text below walks through data of patent US20250049831A1, “ANTIVIRAL USE OF BISE[…], AND BISEPOXYLIGNAN COMPOSITION AND PREPARATION OF BISE[…]” (priority 2021, published 2025).

In one series the test system is COVID-19 virus. Nature of the series: In-vitro antiviral CPE test in Vero E6 cells, COVID-19 virus. The class given is cell-based. The following applies: Vero E6 cells, 100 TCID50, CPE after 3-4 days; unit not given (drug concentrations 250-15.62 μg/mL); in µg/mL.
A further series concerns Vero cells. Kind of series: Drug cytotoxicity assay (MTT) on Vero cells. The class given is cell-based, African green monkey. The following applies: 72 h, Probit regression. The text has this:
Vero cells were subcultured for 1-2 d to make them into flakes, and trypsinized in the presence of clear boundaries, strong three-dimensional sense and strong refractive power, until needle-like holes appeared on the cell surfaces; after the trypsinization solution was absorbed completely, a few milliliters of culture medium were taken to blow away the cells; the cells were counted, diluted to about 5×10^7/L with a culture medium (DMEM containing 10% fetal bovine serum), and then inoculated in a 96-well culture plate; and the cells grew into a monolayer.
Cytotoxicity test: the drugs were diluted at the concentrations shown in Table 3-1 for cytotoxicity assay.

Another series has as its system influenza virus. Kind of series: Effect of drug on virus-induced CPE (MTT, antiviral effective rate), influenza virus in Vero cells. The class given is cell-based.
Another series deals with parainfluenza virus. Kind of series: Effect of drug on virus-induced CPE (MTT, antiviral effective rate), parainfluenza virus in Vero cells. The class given is cell-based.

Turning to `COc1ccc(C2OCC3C(c4ccc(OC(=O)C(C)c5ccc(CC(C)C)cc5)c(OC)c4)OCC23)cc1OC` (stereo not drawn) [compound 6], in the series with COVID-19 virus, the “COVID-19 virus IC50” value is 161.8. Further, in the series on Vero cells, the “Maximum non-toxic concentration (TC0)” value is reported as 0.012 g/L and the “Median toxic concentration (TC50)” value stood at 310 µg/mL. Further, the “Effective rate, ER %, Influenza Virus” value in the series with influenza virus was determined as 84.51%. In the series on parainfluenza virus, the “Effective rate, ER %, Parainfluenza Virus” value amounted to 93.96%.
Take `COc1ccc([C@H]2OC[C@H]3[C@@H]2CO[C@H]3c2ccc(O[C@@H]3O[C@H](CO)[C@@H](O)[C@H](O)[C@H]3O)c(OC)c2)cc1OC` [compound 2]: the “COVID-19 virus IC50” value in the series on COVID-19 virus amounted to 63.3. In the series on Vero cells, the “Maximum non-toxic concentration (TC0)” value was 0.0067 g/L and the “Median toxic concentration (TC50)” value turned out to be 560 µg/mL. In addition, the “Effective rate, ER %, Influenza Virus” value in the series on influenza virus is listed as 85.94%. Also, the “Effective rate, ER %, Parainfluenza Virus” value in the series with parainfluenza virus came out at 94.43%.
Take `COc1cc(O)cc(C2OCC3C(c4ccc(OC5OC(CO)C(O)C(O)C5O)c(OC)c4)OCC23)c1` (stereo not drawn) [compound 1]: the “COVID-19 virus IC50” value in the series on COVID-19 virus worked out at 62.1. Moreover, in the series on Vero cells, the “Maximum non-toxic concentration (TC0)” value was 0.0067 g/L and the “Median toxic concentration (TC50)” value is 560 µg/mL. Besides, the “Effective rate, ER %, Influenza Virus” value in the series with influenza virus came to 89.02%. The “Effective rate, ER %, Parainfluenza Virus” value in the series with parainfluenza virus is given as 99.92%.
